Test results as given in patent US6426355B1, “Heterocyclic carboxamide-containing thiourea inhibitors of herpes viruses containing phenylenediamine group” (American Home Products, priority 1998, dated 2002).
Values after ≈ are worked out from the molar mass of the structure shown.

Legend:
[1] = system: HSV-1; test: HSV Antiviral (ELISA) assay; format: cell-based; details: for IC50 (ug/ml) HSV: HSV-1 in Vero cells; for IC50: Human alphaherpesvirus 1, HSV-1 in Vero cells, read-out: IC50 (ug/ml) HSV
Method in brief: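 Vero cells in DMEM/2% FBS pretreated with compound 30 min before HSV-1 infection (MOI 0.006), then ~24 h at 37 °C. Viral gD detected by ELISA with β-galactosidase secondary and 4-methylumbelliferyl-galactoside (ex 365/em 450 nm); IC50 from fluorescence versus untreated infected cells.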

[2] = system: VZV strain Ellen; test: VZV Antiviral (ELISA) assay; format: cell-based; details: for IC50 (ug/ml) VZV / % inhibition 10 ug/ml VZV: VZV strain Ellen in HFF cells; for % inhibition 10 ug/ml VZV: at 10 ug/ml; for inhibition at 10 µg/mL: Human alphaherpesvirus 3, read-out: % inhibition 10 ug/ml VZV, at 10 ug/ml, VZV strain Ellen in HFF cells; for IC50: Human alphaherpesvirus 3, VZV strain Ellen in HFF cells, read-out: IC50 (ug/ml) VZV
Method in brief: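 First, fibroblasts are infected at multiplicity below 0.1 and kept overnight. The harvested cell mixture then goes onto compound-containing wells for three days at 37° C. Finally, cells are fixed and viral gpII is measured by fluorogenic ELISA.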

[3] = system: HCMV recombinant mutant virus (RV145); test: HCMV microtiter plate assay (beta-glucuronidase reporter); format: cell-based, Human Cytomegalovirus; details: for IC50 (ug/ml) HCMV: HCMV in human foreskin fibroblasts; for IC50: Human betaherpesvirus 5, Fibroblast, read-out: IC50 (ug/ml) HCMV
Method in brief: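 Human foreskin fibroblasts were infected with RV145 in the presence of inhibitor. β-glucuronidase under a viral promoter served as the replication marker. At 96 h post-infection, lysates in pH 7.0 phosphate with Triton X-100/sarkosyl were assayed colorimetrically or fluorometrically, and IC50 was estimated from varying inhibitor amounts.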

SMILES | IC50 (ug/ml) HSV [1] | IC50 (ug/ml) VZV [2] | IC50 (ug/ml) HCMV [3] | % inhibition 10 ug/ml VZV [2] | IC50 [1] | inhibition at 10 µg/mL [2] | IC50 [3] | IC50 [2]
N#Cc1cccc(NC(=S)Nc2ccc(NC(=O)c3ccco3)cc2)c1 [Example 441] | >10 µg/mL | >10 µg/mL | 0.17 µg/mL (≈ 0.469 µM) |  |  |  |  | 
COc1cc(OC)c(NC(=S)Nc2ccc(NC(=O)c3ccccn3)cc2)cc1Cl [Example 224] | 3.5 µg/mL (≈ 7.9 µM) | >10 µg/mL | 0.8 µg/mL (≈ 1.81 µM) | 30% |  |  |  | 
O=C(Nc1ccc(NC(=S)NCCc2ccc(Cl)c(Cl)c2)cc1)c1csnn1 [Example 645] | >10 µg/mL | 10 µg/mL (≈ 22.1 µM) | 0.003 µg/mL (≈ 0.00663 µM) |  |  |  |  | 
CN(c1ccc(NC(=S)Nc2ccc(NC(=O)c3ccco3)cc2)cc1Cl)C1CCCCC1 [Example 246] | >10 µg/mL | 4 µg/mL (≈ 8.28 µM) | 0.05 µg/mL (≈ 0.104 µM) | 37% |  |  |  | 
O=C(Nc1ccc(NC(=S)Nc2cccc(Br)c2)cc1)c1csnn1 [Example 513] | >10 µg/mL | >10 µg/mL | 0.011 µg/mL (≈ 0.0253 µM) | 10% |  |  |  | 
COc1cccc(NC(=S)Nc2ccc(NC(=O)c3ccco3)cc2)c1 [Example 473] | >10 µg/mL | >10 µg/mL | 0.3 µg/mL (≈ 0.816 µM) | 40% |  |  |  | 
O=C(Nc1ccc(NC(=S)Nc2ccc(C(F)(F)F)c(Cl)c2)cc1)c1ccccc1F [Example 961, N-{4-[3-(3-Chloro-4-trifluoromethyl-phenyl)-thioureido]-phenyl} -2-fluoro-benzamide] |  |  |  |  | > 10 µg/mL | 20% | 0.006 µg/mL (≈ 0.0128 µM) | 
O=C(Nc1ccc(NC(=S)NCc2ccc(Cl)c(Cl)c2)cc1)c1ccco1 [Example 545] | 3 µg/mL (≈ 7.14 µM) | 7 µg/mL (≈ 16.7 µM) | 0.012 µg/mL (≈ 0.0285 µM) |  |  |  |  | 
O=C(Nc1ccc(NC(=S)NCCc2ccc(F)cc2)cc1)c1csnn1 [Example 555] | >10 µg/mL | 4 µg/mL (≈ 9.96 µM) | 0.008 µg/mL (≈ 0.0199 µM) |  |  |  |  | 
CC(N=[N+]=[N-])c1ccc(NC(=S)Nc2ccc(NC(=O)c3ccco3)cc2)cc1Cl (stereo not shown) [Example 486] | >10 µg/mL | >10 µg/mL | 0.045 µg/mL (≈ 0.102 µM) | 22% |  |  |  | 
CC(C)c1nc(C(=O)Nc2ccc(NC(=S)Nc3cc(Cl)cc(Cl)c3)cc2)cs1 [Example 1131, 2-Isopropyl-thiazole-4-carboxylic acid {4-[3-(3,5-dichloro-phenyl)-thioureido]-phenyl}-amide] |  |  |  |  | 2.2 µg/mL (≈ 4.73 µM) |  | 1.5 µg/mL (≈ 3.22 µM) | 9 µg/mL (≈ 19.3 µM)
COc1cc(OC)c(NC(=S)Nc2ccc(NC(=O)c3cc4ccccc4o3)cc2)cc1Cl [Example 154] | 4 µg/mL (≈ 8.3 µM) | >10 µg/mL | 10 µg/mL (≈ 20.7 µM) | 23% |  |  |  | 
CN1CCN(c2cc(NC(=S)Nc3ccc(NC(=O)c4csnn4)cc3)cc(C(F)(F)F)c2)CC1 [Example 558] | 7 µg/mL (≈ 13.4 µM) | >10 µg/mL | 0.05 µg/mL (≈ 0.0959 µM) |  |  |  |  | 
COc1cc(OC)c(NC(=S)Nc2ccc(NC(=O)c3nnsc3-c3ccccc3)cc2)cc1Cl [Example 281] | >10 µg/mL | >10 µg/mL | >10 µg/mL | 31% |  |  |  | 
O=C(Nc1ccc(NC(=S)Nc2ccc(I)c(Cl)c2)cc1)c1ccccc1F [Example 966, N-{4-[3-(3-Chloro-4-iodo-phenyl)-thioureido]-phenyl} -2-fluoro-benzamide] |  |  |  |  | > 10 µg/mL | 42% | 0.02 µg/mL (≈ 0.038 µM) | 
O=C(Nc1ccc(NC(=S)NCCc2cccc(F)c2)cc1)c1csnn1 [Example 554] | >10 µg/mL | 1.5 µg/mL (≈ 3.74 µM) | 0.01 µg/mL (≈ 0.0249 µM) |  |  |  |  | 
CN(c1ccc(NC(=S)Nc2ccc(NC(=O)c3csnn3)cc2)cc1Cl)C1CCCCC1 [Example 237] | >10 µg/mL | >10 µg/mL | 0.02 µg/mL (≈ 0.0399 µM) | 17% |  |  |  | 
CN(C)c1c(Cl)cccc1NC(=S)Nc1ccc(NC(=O)c2csnn2)cc1 [Example 503] | 8 µg/mL (≈ 18.5 µM) | >10 µg/mL | 0.053 µg/mL (≈ 0.122 µM) | 64% |  |  |  | 
O=C(Nc1ccc(NC(=O)c2csnn2)cc1)Nc1cc(Cl)cc(Cl)c1 [Example 86, [1,2,3]Thiadiazole-4-carboxylic acid {4-[3-(3,5-dichloro-phenyl)-ureido]-phenyl}-amide] |  |  |  |  | > 10 µg/mL | 32% | 0.04 µg/mL (≈ 0.098 µM) | > 10 µg/mL
